Data taken from the supplement of paper PMC10702517.
± gives the standard deviation.

Legend:
[1] = chemical recovery into PDMS from spiked human plasma; higher = better extraction; conditions: pooled human plasma, extraction method: PES with PDMS
[2] = chemical recovery from spiked human plasma; higher = better extraction; conditions: pooled human plasma
[3] = chemical recovery by SPE of plasma after PDMS sampling; higher = better extraction; conditions: pooled human plasma, extraction method: HLB SPE of plasma after PES
[4] = extraction method: SPE only (HLB 96-well)
[5] = extraction method: SPE only (HLB 96-well), PES comparison experiment
[6] = extraction method: solvent precipitation (ACN + hexane)
[7] = extraction method: PES+SPE (3 d PDMS equilibration then HLB SPE)
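For chemical recovery by SPE of plasma after PDMS sampling in this document: over 400 spiked chemicals quantified by LC-HRMS or GC-HRMS via internal standard calibration, recovery relative to spike mix added to unspiked plasma extract to correct matrix effects.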

| SMILES | chemical recovery into PDMS ([1]; equilibration time (d): 1) | chemical recovery into PDMS ([1]; equilibration time (d): 3) | chemical recovery into PDMS ([1]; equilibration time (d): 6) | chemical recovery [2, 4] | chemical recovery [2, 5] | chemical recovery [2, 6] | chemical recovery [2, 7] | chemical recovery by SPE of plasma ([3]; equilibration time (d): 1) | chemical recovery by SPE of plasma ([3]; equilibration time (d): 3) | chemical recovery by SPE of plasma ([3]; equilibration time (d): 6) |
| --- | --- | --- | --- | --- | --- | --- | --- | --- | --- | --- |
| CC(=O)c1cc2c(cc1C)C(C)(C)C(C)C2(C)C (stereo not drawn) [Phantolide] | 32.9 ± 0.97% | 37.4 ± 3.8% | 34.1 ± 3.6% |  |  |  |  |  |  |  |
| O=C(Nc1ccc(F)cc1)c1cccc(Oc2cccc(C(F)(F)F)c2)n1 [Picolinafen] | 50.6 ± 4.7% | 54.1 ± 5.5% | 50.4 ± 4.1% | 49.3 ± 14% | 28.9 ± 6% | 69.8 ± 6% |  |  |  |  |
| CC(=O)[C@H]1CC[C@H]2[C@@H]3CCC4=CC(=O)CC[C@]4(C)[C@H]3CC[C@]12C [Progesterone] | 47.3 ± 3.5% | 50.6 ± 4.3% | 48.2 ± 0.51% |  | 45.7 ± 9.4% |  |  |  |  |  |
| COC(=O)N(OC)c1ccccc1COc1ccn(-c2ccc(Cl)cc2)n1 [Pyraclostrobin] | 46.4 ± 5.7% | 47.9 ± 3.8% | 46.6 ± 3.3% | 48 ± 6.1% | 36.9 ± 5% |  | 71.5 ± 8.6% |  |  |  |
| CCOC(=O)c1cn2nc(OP(=S)(OCC)OCC)cc2nc1C [Pyrazophos] | 39.1 ± 4.4% | 40.5 ± 2.3% | 40.1 ± 2.1% | 43 ± 3.4% | 40.2 ± 7.4% |  | 55.7 ± 7.8% |  |  |  |
| CC(C)(C)c1ccc(CSc2cnn(C(C)(C)C)c(=O)c2Cl)cc1 [Pyridaben] | 50.4 ± 7.5% | 49.7 ± 3.6% | 49.4 ± 2.4% | 7.91 ± 1.1% |  |  |  |  |  |  |
| CC(COc1ccc(Oc2ccccc2)cc1)Oc1ccccn1 (stereo not drawn) [Pyriproxyfen] | 48.2 ± 4.8% | 50.9 ± 6.1% | 49.3 ± 2.8% | 39.7 ± 12% | 23 ± 4.6% |  |  |  |  |  |
| CC1(C)[C@H](C=C(Cl)Cl)[C@H]1C(=O)OCc1c(F)c(F)cc(F)c1F [Transfluthrin] | 79.7 ± 14% | 113 ± 37% | 92.7 ± 12% | 0.85 ± 0.086% | 13.8 ± 3.7% | 31.9 ± 2.4% |  |  |  |  |
| CC(C)COP(=O)(OCC(C)C)OCC(C)C [Tri-isobutylphosphate] | 37.6 ± 1.3% | 39.9 ± 4.4% | 39.9 ± 2.7% |  | 31.3 ± 5.5% |  |  |  |  |  |
| CC(C)(C)C(O)C(Oc1ccc(Cl)cc1)n1cncn1 (stereo not drawn) [Triadimenol] | 39.4 ± 1.5% | 43.5 ± 3.8% | 43.6 ± 0.11% |  | 47.4 ± 7.7% | 68.9 ± 3.2% |  |  |  |  |
| CC(C)N(C(=O)SCC(Cl)=C(Cl)Cl)C(C)C [Triallate] | 29 ± 1.7% | 32.2 ± 4% | 29.8 ± 1.9% | 16.3 ± 5% | 22.8 ± 6.1% | 76.8 ± 11% |  |  |  |  |
| C[C@]12C=CC(=O)C=C1CC[C@H]1[C@@H]3C[C@@H](O)[C@](O)(C(=O)CO)[C@@]3(C)C[C@H](O)[C@@]12F [Triamcinolone] |  |  |  |  | 50.5 ± 3.2% |  |  | 55.2 ± 12% | 58.4 ± 5.8% | 54.9 ± 10% |
| COP(=O)(OC)C(O)C(Cl)(Cl)Cl (stereo not drawn) [Trichlorfon] |  |  |  | 33.1 ± 1.9% | 43.1 ± 8.1% | 0.0499 ± 0.086% | 13.2 ± 1.2% | 30.8 ± 2.4% | 25.3 ± 0.61% | 18.2 ± 1.2% |
| COc1cc(Cl)ccc1Oc1ccc(Cl)cc1Cl [Triclosan-methyl] |  |  | 84.6 ± 26% | 0.483 ± 0.13% | 12.2 ± 2.8% | 22.2 ± 1.1% |  |  |  |  |
| Cc1ccc(OP(=O)(Oc2ccc(C)cc2)Oc2ccc(C)cc2)cc1 [Tricresylphosphate] | 54.2 ± 6.3% | 56.1 ± 5.2% | 54 ± 3.2% | 44.8 ± 12% | 25.4 ± 4.9% |  |  |  |  |  |
| CO/N=C(/C(=O)OC)c1ccccc1CO/N=C(\C)c1cccc(C(F)(F)F)c1 [Trifloxystrobin] | 47.2 ± 4.1% | 47.8 ± 5.8% | 47.3 ± 3.1% | 48 ± 6.8% | 45.4 ± 8.7% |  |  |  |  |  |
| O=P(Oc1ccccc1)(Oc1ccccc1)Oc1ccccc1 [Triphenylphosphate] | 41.3 ± 4.4% | 43.5 ± 3.7% | 42 ± 2.9% | 57.9 ± 4.8% | 41.3 ± 5.6% | 88.1 ± 6.6% |  |  |  |  |
| CC[C@H]1OC(=O)C[C@@H](O)[C@H](C)[C@@H](O[C@@H]2O[C@H](C)[C@@H](O[C@H]3C[C@@](C)(O)[C@@H](O)[C@H](C)O3)[C@H](N(C)C)[C@H]2O)[C@@H](CC=O)C[C@@H](C)C(=O)/C=C/C(C)=C/[C@@H]1CO[C@@H]1O[C@H](C)[C@@H](O)[C@@H](OC)[C@H]1OC [TylosinCH4O] |  |  |  |  | 33.9 ± 4.8% |  |  | 30.2 ± 3.2% | 35.1 ± 4.1% | 33 ± 2.3% |
| CCCc1nc(C)c2c(=O)nc(-c3cc(S(=O)(=O)N4CCN(CC)CC4)ccc3OCC)[nH]n12 [Vardenafil] |  |  |  |  | 35.1 ± 8.2% |  |  | 13.4 ± 2.1% | 7.22 ± 1.1% | 4.01 ± 0.43% |
| CC(=O)CC(c1ccccc1)c1c(O)c2ccccc2oc1=O (stereo not drawn) [Warfarin] |  |  |  | 44.9 ± 2.1% | 56.6 ± 4.3% | 72.5 ± 6.1% | 50 ± 3.2% | 62.2 ± 10% | 66.6 ± 3.5% | 62.8 ± 4.6% |
| O=C1Cc2cc(CCN3CCN(c4nsc5ccccc45)CC3)c(Cl)cc2N1 [Ziprasidone] |  |  |  | 38.7 ± 2.6% | 41.5 ± 7.6% | 76 ± 9.8% | 22.9 ± 2.4% | 37.1 ± 6.7% | 34 ± 4.3% | 25.3 ± 2.6% |
| Cl[C@H]1[C@H](Cl)[C@@H](Cl)[C@H](Cl)[C@H](Cl)[C@H]1Cl [alpha-HCH] | 56.7 ± 14% | 69.9 ± 18% | 66.1 ± 14% |  | 25.5 ± 5.6% |  |  |  |  |  |
| O=S1OC[C@@H]2[C@H](CO1)[C@]1(Cl)C(Cl)=C(Cl)[C@]2(Cl)C1(Cl)Cl (stereo partly drawn) [beta-Endosulfan] | 60.6 ± 7.8% | 77.8 ± 18% | 80.6 ± 18% | 3.92 ± 1.1% | 15.9 ± 3.6% | 17.7 ± 8.9% |  |  |  |  |
| Cl[C@H]1[C@H](Cl)[C@@H](Cl)[C@H](Cl)[C@@H](Cl)[C@@H]1Cl [beta-HCH] |  | 80.5 ± 10% | 77.1 ± 5.9% |  | 26.6 ± 2.1% | 33.3 ± 5.6% | 192 ± 11% |  |  |  |
| C(=C/c1ccccc1)/c1ccccc1 [cis-Stilbene] |  |  |  | 3.93 ± 0.065% | 3.65 ± 1.4% |  |  |  |  | 0.481 ± 2.9% |
| Cc1ccc(S(=O)(=O)O)c(C)c1 [m-Xylene-4-sulfonic acid] |  |  |  | 46.9 ± 14% | 45.2 ± 4.9% | 74.3 ± 4.9% |  |  | 36.3 ± 2.3% | 38.3 ± 8.9% |
| C/C(=C\c1ccccc1)c1ccccc1 [trans-a-Methylstilbene] |  | 97.6 ± 13% | 112 ± 44% |  |  |  |  |  |  |  |
